Data on eight compounds can be found in patent publication US10155004B2, “17-hydroxy-17-pentafluoroethyl-estra-4,9(10)-dien-11-aryl derivatives, method of production thereof and use thereof for the treatment of diseases” (BAYER INTELLECTUAL PROPERTY GMBH, priority 2009, dated 2018).

Test [1] deals with T1, human progesterone receptor A (Homo sapiens, UniProt P06401).
T1 construct: expressed in transfected cells; host or cells: SK-N-MC human neuroblastoma cells, stably transfected
T1 sequence (P06401 1-769 isoform P06401-2): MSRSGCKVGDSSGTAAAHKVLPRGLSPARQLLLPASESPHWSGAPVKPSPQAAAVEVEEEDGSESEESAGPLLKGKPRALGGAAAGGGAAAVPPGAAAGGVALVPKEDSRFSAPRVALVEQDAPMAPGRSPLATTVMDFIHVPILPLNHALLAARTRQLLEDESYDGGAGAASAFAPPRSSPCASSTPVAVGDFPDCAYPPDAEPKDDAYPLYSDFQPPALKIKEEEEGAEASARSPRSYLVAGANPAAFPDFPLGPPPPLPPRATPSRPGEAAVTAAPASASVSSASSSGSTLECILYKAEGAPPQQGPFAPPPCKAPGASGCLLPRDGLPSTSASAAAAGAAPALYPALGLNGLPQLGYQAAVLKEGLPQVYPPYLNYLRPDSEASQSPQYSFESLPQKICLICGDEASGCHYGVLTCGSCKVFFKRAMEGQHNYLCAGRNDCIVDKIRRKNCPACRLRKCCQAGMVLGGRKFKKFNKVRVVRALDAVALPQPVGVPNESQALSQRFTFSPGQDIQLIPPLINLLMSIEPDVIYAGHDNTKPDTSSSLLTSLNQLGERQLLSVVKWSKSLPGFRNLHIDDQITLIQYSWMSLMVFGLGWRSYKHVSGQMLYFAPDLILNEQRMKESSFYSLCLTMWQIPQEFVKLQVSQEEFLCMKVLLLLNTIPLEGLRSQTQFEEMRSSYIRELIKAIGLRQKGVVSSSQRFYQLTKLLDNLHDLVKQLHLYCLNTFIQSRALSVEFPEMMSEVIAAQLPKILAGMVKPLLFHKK
The experiment in a line: Progesterone receptor-antagonistic action in stably transfected SK-N-MC cells, MTV-LUC reporter (PR-A). Type of test: cell-based. Particulars: for Progesterone receptor A (PR-A) Efficacy: antagonistic efficacy vs 0.1 nmol/l promegestone; for IC50: antagonism of 0.1 nmol/l promegestone, 24 hours, LUC reporter, read-out: Progesterone receptor A (PR-A) Potency IC50. As for the experimental part:
(§1) EXAMPLE 16 PROGESTERONE RECEPTOR-ANTAGONISTIC ACTION IN STABLE TRANSFECTANTS OF HUMAN NEUROBLASTOMA CELLS (SK-N-MC CELLS) WITH THE HUMAN PROGESTERONE A OR PROGESTERONE B RECEPTOR AND AN MTV-LUC REPORTER CONSTRUCT
(§2) SK-N-MC cells (human neuroblastoma cells), which have been stably transfected with plasmids, which express the human progesterone receptor B (pRChPR-B-neo) or the human progesterone receptor A (pRChPR-A-neo) and a reporter construct (pMMTV-LUC), were incubated for 24 hours either in the absence (negative control) or in the presence of increasing amounts of the respective test compound (0.01 nmol/l, 0.1 nmol/l 1 nmol/l, 10 nmol/l, 100 nmol/l and 1 μmol/l), in order to determine the agonistic efficacy. As positive control of reporter gene induction, the cells were treated with the synthetic gestagen promegestone (0.01 nmol/l, 0.1 nmol/l, 1 nmol/l, 10 nmol/l, 100 nmol/l and 1 μmol/l). For determination of the antagonistic activity, the cells were treated with 0.1 nmol/1 promegestone and additionally with increasing amounts of the respective test compound (0.01 nmol/l, 0.1 nmol/l, 1 nmol/l, 10 nmol/l, 100 nmol/l and 1 μmol/l). The activity of the LUC reporter gene (LUC=luciferase) was determined in the cell lysates and was measured as RLU (relative light units). All measured values are given as percentage efficacy and as EC50 or IC50 concentrations.
(§3) 11β-(4-Acetylphenyl)-20,20,21,21,21-pentafluoro-17-hydroxy-19-nor-17α-pregna-4,9-dien-3-one and 20,20,21,21,21-pentafluoro-17-hydroxy-11β-[4-(hydroxyacetyl)phenyl]-19-nor-17α-pregna-4,9-dien-3-one, very potent and therefore preferred examples from WO98/34947 and WO2008/058767, were tested as comparative compounds along with the test compound.

Test [2] concerns the target T2, human progesterone receptor B (Homo sapiens, UniProt P06401).
T2 construct: expressed in transfected cells; host or cells: SK-N-MC human neuroblastoma cells, stably transfected
T2 sequence (P06401 1-933): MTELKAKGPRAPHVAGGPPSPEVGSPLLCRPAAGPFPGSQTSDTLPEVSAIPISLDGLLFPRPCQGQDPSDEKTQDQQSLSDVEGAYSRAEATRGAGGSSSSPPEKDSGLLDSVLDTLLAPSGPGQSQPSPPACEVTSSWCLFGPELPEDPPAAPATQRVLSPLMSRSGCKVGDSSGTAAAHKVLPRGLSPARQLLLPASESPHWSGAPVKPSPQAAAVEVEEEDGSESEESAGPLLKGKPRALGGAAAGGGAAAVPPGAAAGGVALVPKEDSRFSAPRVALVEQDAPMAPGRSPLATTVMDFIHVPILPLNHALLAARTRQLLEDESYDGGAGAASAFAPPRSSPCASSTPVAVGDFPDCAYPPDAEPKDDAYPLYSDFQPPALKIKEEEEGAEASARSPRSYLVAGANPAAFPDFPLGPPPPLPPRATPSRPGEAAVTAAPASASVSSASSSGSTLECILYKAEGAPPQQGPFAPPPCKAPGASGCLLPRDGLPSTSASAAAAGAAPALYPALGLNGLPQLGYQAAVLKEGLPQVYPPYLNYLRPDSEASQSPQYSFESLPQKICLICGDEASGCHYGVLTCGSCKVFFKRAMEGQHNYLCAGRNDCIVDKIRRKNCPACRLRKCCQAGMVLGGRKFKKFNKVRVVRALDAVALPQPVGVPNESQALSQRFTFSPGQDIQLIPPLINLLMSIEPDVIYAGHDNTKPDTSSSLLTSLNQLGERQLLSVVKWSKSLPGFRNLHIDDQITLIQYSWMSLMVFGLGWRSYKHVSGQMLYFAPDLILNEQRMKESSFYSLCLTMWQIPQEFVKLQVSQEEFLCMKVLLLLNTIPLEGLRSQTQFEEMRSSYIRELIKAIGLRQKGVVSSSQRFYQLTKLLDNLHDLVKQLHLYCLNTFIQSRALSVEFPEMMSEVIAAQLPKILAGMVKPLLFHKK
The experiment in a line: Progesterone receptor-antagonistic action in stably transfected SK-N-MC cells, MTV-LUC reporter (PR-B). Particulars: for Progesterone receptor B (PR-B) Efficacy: antagonistic efficacy vs 0.1 nmol/l promegestone; for IC50: antagonism of 0.1 nmol/l promegestone, 24 hours, LUC reporter, read-out: Progesterone receptor B (PR-B) Potency IC50. Format: cell-based. As for the experimental part: as §1, §2, §3

The subject of a further test is pregnant rats. The experiment in a line: Abortion test on female rats (termination of early pregnancy). Type of test: in vivo, rat. The settings on record: d5-d7 p.c., autopsy d9 p.c. The protocol:
EXAMPLE 17 ABORTION TEST ON FEMALE RATS
The action of progesterone and of the progesterone receptor is a fundamental precondition for successful pregnancy or gestation in mammals. The progesterone-antagonistic action of the compounds according to the invention was tested on pregnant rats (6 rats per group) on day 5 to 7 post coitum with conventional housing and feeding conditions.
After successful hand mating, the pregnant animals (presence of sperm in the vaginal smear on day 1 of pregnancy=d1 p.c.) were randomized and divided into the treatment group and the control group. The animals then each received subcutaneously or orally 0.15; 0.5; 1.5 or 5 mg/kg of the test compound or 1.0 ml/kg of vehicle (benzyl benzoate/castor oil: 1+4 [v/v]) daily from day 5 to day 7 (d5-d7 p.c.).
Autopsy was carried out on day 9 (d9 p.c.). As a characteristic of progesterone receptor antagonistic action, the uterus was examined for the presence of nidation sites. Complete absence, or also the presence of pathological, haemorrhagic or otherwise abnormal nidation sites on day 9 (d9 p.c.) was assessed as abortion.

Setting [3] is: daily dose 0.5 mg/kg s.c. or p.o.
Setting [4] is: daily dose 1.5 mg/kg s.c. or p.o.
[5] abbreviates: daily dose 5.0 mg/kg s.c. or p.o.

For `C[S+]([O-])c1ccc([C@H]2C[C@@]3(C)[C@@H](CC[C@@]3(O)C(F)(F)C(F)(F)F)[C@@H]3CCC4=CC(=O)CCC4=C32)cc1` (mixture of isomers) [Example 3, (11β,17β)-17-Hydroxy-11-{4-[(RS)-methylsulphinyl]phenyl}-17-(pentafluoroethy)estra-4,9-dien-3-one], the “Progesterone receptor A (PR-A) Efficacy” value in test [1] was determined as 100%. Further, the “Progesterone receptor B (PR-B) Efficacy” value in test [2] is recorded as 100%.
One may read the IC50 as the concentration needed to halve the response being measured. As for `CC(=O)c1ccc(C2CC3(C)C(CCC3(O)C(F)(F)C(F)(F)F)C3CCC4=CC(=O)CCC4=C23)cc1` (stereo not drawn) [11β-(4-Acetylphenyl)-20,20,21,21,21-pentafluoro-17-hydroxy-19-nor-17α-pregna-4,9-dien-3-one, reference compound], the IC50 in test [1] was determined as 0.014 nM; in test [2], 0.02 nM.
With `CSc1ccc([C@H]2C[C@@]3(C)[C@@H](CC[C@@]3(O)C(F)(F)C(F)(F)F)[C@@H]3CCC4=CC(=O)CCC4=C32)cc1` [Example 1, (11β,17β)-17-hydroxy-11-[4-(methylsulphanyl)phenyl]-17-(pentafluoroethyl)estra-4,9-dien-3-one], in test [1], the “Progesterone receptor A (PR-A) Efficacy” value is on record as 100%. The “Progesterone receptor B (PR-B) Efficacy” value in test [2] turned out to be 100%. Further, the Abortion rate was found to be 80% in the test on pregnant rats (setting [3]), 100% in the test on pregnant rats (setting [4]) and 100% in the test on pregnant rats (setting [5]).
`CCSc1ccc([C@H]2C[C@@]3(C)C(CC[C@@]3(O)C(F)(F)C(F)(F)F)C3CCC4=CC(=O)CCC4=C32)cc1` (stereo partly drawn) [Example 2, (11β,17β)-11-[4-(ethylsulphanyl)phenyl]-17-hydroxy-17-(pentafluoroethyl)estra-4,9-dien-3-one]: the IC50 in test [1] was determined as 0.01 nM.
With `C[C@]12C[C@H](c3ccc(S(C)(=N)=O)cc3)C3=C4CCC(=O)C=C4CCC3C1CC[C@@]2(O)C(F)(F)C(F)(F)F` (stereo partly drawn) [Example 8, (11β,17β)-17-Hydroxy-11-[4-(RS-methylsulphonimidoyl)phenyl]-17-(pentafluoroethyl)estra-4,9-dien-3-one], the “Progesterone receptor A (PR-A) Efficacy” value in test [1] worked out at 100%. Also, the “Progesterone receptor B (PR-B) Efficacy” value in test [2] was 100%. Also, the Abortion rate is on record as 40% in the test on pregnant rats (daily dose 0.15 mg/kg s.c. or p.o.), 100% with pregnant rats (setting [3]), 100% with pregnant rats (setting [4]) and 100% with pregnant rats (setting [5]).
On to `CSc1ccc(-c2ccc([C@H]3C[C@@]4(C)[C@@H](CC[C@@]4(O)C(F)(F)C(F)(F)F)[C@@H]4CCC5=CC(=O)CCC5=C43)cc2)cc1` [Example 9, (11β,17β)-17-Hydroxy-11-[4′-(methylsulphanyl)biphenyl-4-yl]-17-(pentafluoroethy)estra-4,9-dien-3-one], for which the IC50 in test [1] and in test [2] was 0.01 nM in each case.
`CN(C)S(=O)(=O)c1ccc(-c2ccc([C@H]3C[C@@]4(C)[C@@H](CC[C@@]4(O)C(F)(F)C(F)(F)F)[C@@H]4CCC5=CC(=O)CCC5=C43)cc2)cc1` [Example 14, 4′-[(11β,17β)-17-hydroxy-3-oxo-17-(pentafluoroethyl)estra-4,9-dien-11-yl]-N,N-dimethylbiphenyl-4-sulphonamide]: the IC50 in test [1] worked out at 0.01 nM.
On to `CN(C)S(=O)(=O)c1ccc([C@H]2C[C@@]3(C)[C@@H](CC[C@@]3(O)C(F)(F)C(F)(F)F)[C@@H]3CCC4=CC(=O)CCC4=C32)cc1` [Example 15, 4-[(11β,17β)-17-Hydroxy-3-oxo-17-(pentafluoroethy)estra-4,9-dien-11-yl]-N,N-dimethylbenzene Sulphonamide], for which the results for the IC50 in test [1] and in test [2] were 0.1 nM and 0.2 nM, respectively.
